Measured values from ChEMBL document CHEMBL5291721, “A preclinical secondary pharmacology resource illuminates target-adverse drug reaction associations of marketed drugs” (Nat Commun, 2023).

Legend:
[1] = target: T1, Amine oxidase [flavin-containing] A (Homo sapiens, UniProt P21397); assay type: functional
T1 sequence (P21397 whole entry): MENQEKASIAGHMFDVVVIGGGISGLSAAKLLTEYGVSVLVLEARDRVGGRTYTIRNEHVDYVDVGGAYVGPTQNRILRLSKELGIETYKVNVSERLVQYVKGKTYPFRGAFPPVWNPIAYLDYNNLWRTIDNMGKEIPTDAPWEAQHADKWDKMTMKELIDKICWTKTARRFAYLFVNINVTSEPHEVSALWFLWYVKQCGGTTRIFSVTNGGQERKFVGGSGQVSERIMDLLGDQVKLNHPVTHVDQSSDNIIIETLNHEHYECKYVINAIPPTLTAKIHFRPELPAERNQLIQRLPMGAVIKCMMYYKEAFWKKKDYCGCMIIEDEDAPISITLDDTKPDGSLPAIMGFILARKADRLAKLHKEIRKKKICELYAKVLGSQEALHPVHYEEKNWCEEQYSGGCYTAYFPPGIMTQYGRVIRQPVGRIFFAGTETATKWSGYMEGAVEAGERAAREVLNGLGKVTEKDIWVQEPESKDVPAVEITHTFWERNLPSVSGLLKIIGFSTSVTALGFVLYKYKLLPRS

[2] = target: Cannabinoid receptor 1 (Homo sapiens, UniProt P21554); assay type: functional, cell-based
[3] = target: T2, Equilibrative nucleoside transporter 1 (Homo sapiens, UniProt Q99808)
T2 sequence (Q99808 whole entry): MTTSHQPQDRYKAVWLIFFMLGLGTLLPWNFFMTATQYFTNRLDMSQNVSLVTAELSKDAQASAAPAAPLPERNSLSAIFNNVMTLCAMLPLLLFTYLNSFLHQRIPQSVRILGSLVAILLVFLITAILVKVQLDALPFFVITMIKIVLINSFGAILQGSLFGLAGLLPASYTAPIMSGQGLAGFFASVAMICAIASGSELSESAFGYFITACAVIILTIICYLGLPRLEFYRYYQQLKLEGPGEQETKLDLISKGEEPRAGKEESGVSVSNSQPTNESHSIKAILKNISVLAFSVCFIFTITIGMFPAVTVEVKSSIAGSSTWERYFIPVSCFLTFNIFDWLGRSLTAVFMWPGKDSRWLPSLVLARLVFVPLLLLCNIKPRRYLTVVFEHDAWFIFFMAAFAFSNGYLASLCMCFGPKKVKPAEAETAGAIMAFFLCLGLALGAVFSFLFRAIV

[4] = target: Growth hormone secretagogue receptor type 1 (Homo sapiens, UniProt Q92847)
[5] = target: T3, Alpha-1A adrenergic receptor (Homo sapiens, UniProt P35348); assay type: functional, cell-based
T3 sequence (P35348 whole entry): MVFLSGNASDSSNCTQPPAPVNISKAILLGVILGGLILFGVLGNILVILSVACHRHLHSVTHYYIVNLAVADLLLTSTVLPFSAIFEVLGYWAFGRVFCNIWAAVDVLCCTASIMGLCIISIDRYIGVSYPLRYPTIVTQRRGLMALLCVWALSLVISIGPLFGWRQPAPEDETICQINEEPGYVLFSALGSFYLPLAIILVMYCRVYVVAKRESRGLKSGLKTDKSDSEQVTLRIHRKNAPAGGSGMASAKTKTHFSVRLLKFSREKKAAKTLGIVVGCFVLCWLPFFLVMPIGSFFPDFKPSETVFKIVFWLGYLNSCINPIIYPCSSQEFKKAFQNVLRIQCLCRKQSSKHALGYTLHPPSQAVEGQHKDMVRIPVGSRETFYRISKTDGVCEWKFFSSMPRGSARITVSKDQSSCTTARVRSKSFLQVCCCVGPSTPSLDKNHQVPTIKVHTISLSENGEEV

[6] = target: T4, Neuropeptide Y receptor type 1 (Homo sapiens, UniProt P25929)
T4 sequence (P25929 whole entry): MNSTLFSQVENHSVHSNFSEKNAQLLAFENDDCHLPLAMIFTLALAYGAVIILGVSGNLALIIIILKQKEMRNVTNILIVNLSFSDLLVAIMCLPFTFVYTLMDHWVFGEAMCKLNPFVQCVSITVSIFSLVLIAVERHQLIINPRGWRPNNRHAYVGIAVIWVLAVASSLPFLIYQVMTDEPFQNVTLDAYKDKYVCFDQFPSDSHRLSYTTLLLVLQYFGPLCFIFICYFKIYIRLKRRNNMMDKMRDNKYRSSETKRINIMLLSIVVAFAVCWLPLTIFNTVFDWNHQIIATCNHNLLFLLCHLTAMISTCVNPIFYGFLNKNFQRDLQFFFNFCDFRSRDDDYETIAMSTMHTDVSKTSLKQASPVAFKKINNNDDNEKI

[7] = target: T5, Alpha-2A adrenergic receptor (Homo sapiens, UniProt P08913); assay type: functional, cell-based
T5 sequence (P08913 whole entry): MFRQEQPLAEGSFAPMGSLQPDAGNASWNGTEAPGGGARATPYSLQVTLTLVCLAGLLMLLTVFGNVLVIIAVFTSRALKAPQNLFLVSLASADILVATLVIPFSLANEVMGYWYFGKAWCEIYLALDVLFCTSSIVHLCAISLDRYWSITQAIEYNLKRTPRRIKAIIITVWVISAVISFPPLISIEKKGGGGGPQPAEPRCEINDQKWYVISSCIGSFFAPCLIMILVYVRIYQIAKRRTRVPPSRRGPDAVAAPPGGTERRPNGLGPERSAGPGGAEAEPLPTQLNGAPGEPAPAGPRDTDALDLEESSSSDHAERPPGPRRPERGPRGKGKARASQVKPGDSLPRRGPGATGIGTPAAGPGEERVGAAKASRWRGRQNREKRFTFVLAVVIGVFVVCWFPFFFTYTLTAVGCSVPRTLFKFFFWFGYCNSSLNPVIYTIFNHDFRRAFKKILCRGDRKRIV

Measured: AC50
Also: assay procedure not described here.

Chain of Growth hormone secretagogue receptor type 1 (Q92847 whole entry): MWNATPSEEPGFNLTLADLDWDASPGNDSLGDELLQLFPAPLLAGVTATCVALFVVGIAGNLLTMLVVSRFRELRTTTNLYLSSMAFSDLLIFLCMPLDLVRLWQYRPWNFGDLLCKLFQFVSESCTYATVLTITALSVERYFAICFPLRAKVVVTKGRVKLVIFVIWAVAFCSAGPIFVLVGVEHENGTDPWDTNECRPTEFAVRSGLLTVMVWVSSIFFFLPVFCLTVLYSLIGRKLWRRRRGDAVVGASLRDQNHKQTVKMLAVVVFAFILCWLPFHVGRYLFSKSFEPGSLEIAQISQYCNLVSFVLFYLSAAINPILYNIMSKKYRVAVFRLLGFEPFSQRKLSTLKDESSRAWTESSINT
Chain of Cannabinoid receptor 1 (P21554 whole entry): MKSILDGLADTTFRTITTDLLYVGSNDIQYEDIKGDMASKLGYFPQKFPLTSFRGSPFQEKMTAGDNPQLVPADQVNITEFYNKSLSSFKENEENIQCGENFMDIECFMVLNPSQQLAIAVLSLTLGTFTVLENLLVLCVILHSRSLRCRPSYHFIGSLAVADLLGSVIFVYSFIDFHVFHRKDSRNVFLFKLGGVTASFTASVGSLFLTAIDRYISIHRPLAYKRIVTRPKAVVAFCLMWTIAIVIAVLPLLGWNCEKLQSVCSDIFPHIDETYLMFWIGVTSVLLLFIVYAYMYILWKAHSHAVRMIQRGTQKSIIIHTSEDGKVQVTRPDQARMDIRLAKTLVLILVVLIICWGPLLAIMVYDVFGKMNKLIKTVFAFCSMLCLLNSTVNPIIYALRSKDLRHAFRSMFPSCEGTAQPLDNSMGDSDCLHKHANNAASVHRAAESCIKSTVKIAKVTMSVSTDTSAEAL

CC(=O)O[C@H]1C[C@@H]2CC[C@@H]3[C@H](CC[C@@]4(C)[C@H]3C[C@H]([N+]3(C)CCCCC3)[C@@H]4OC(C)=O)[C@@]2(C)C[C@@H]1N1CCCCC1 [VECURONIUM]
> 30 µM: all assays above

C=CCN1CCCC1CNC(=O)c1cc(S(N)(=O)=O)cc(OC)c1OC (stereo unspecified) [VERALIPRIDE]
> 30 µM: all assays above

O=C(NCCNCC(O)COc1ccc(O)cc1)N1CCOCC1 (stereo unspecified) [XAMOTEROL]
> 30 µM: all assays above
